The values that follow come from patent US20050101595A1, “N-containing cycloalkyl-substituted amino-thiazole derivatives and pharmaceutical compositions for inhibiting cell proliferation and methods for their use” (PFIZER INC., priority 2003, published 2005).

Where two headings read alike, the source gives them in different places.

For one data set, the target named is CDK2/Cyclin A (Homo sapiens, UniProt P24941). As to the kind of experiment: Inhibition of CDK2/Cyclin A Retinoblastoma Kinase Activity. It counts as biochemical. The settings on record: apparent Ki, CDK2/proteolyzed cyclin A, Rb fragment substrate, 25 μM ATP. The procedure, abridged:
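Human CDK2, baculovirus/insect-cell expressed, complexed with proteolyzed cyclin A (10 nM or 19 nM CDK2) phosphorylates an Rb fragment with 25 μM [32P/33P]ATP at pH 7.4, 30° C, for 60 or 75 minutes under initial-rate conditions. Filter-captured radioactivity is read by phosphorimager; apparent Ki from competitive-inhibition fits.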

In data set [1] the target is human CDK4 and genetically truncated (1-264) cyclin D3 (Homo sapiens, UniProt P11802). The data set is described as follows: Inhibition of CDK4/Cyclin D Retinoblastoma Kinase Activity. The settings on record: apparent Ki, CDK4/truncated cyclin D3, Rb fragment substrate, 25 μM ATP. The format is biochemical. The procedure, abridged: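 Read-out: 32P/33P incorporation into Rb fragment (386-928) captured on nitrocellulose, phosphorimager. Enzyme 5 nM CDK4/cyclin D3(1-264) from insect cells; ATP 25 μM, pH 7.4, 30 °C, 20 min (60 min for tight binders). Ki from competitive fits.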

The subject of another data set is HCT-116 cell line. As to the kind of experiment: Inhibition of cell growth, tetrazolium salt (MTT) assay. It counts as cell-based. The settings on record: Homo sapiens, HCT-116, 120 h, MTT, three to five days, read-out: HCT-116 IC50. The procedure, abridged: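 Growth inhibition is scored relative to cells receiving only 0.5% (v/v) DMSO. Plated cells rest 4 h, then take compound for three to five days at 37° C; MTT reduction to formazan is read at 540 nm.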

human CDK4 and genetically truncated (1-264) cyclin D3, sequence (P11802 whole entry, the tested form may be a part): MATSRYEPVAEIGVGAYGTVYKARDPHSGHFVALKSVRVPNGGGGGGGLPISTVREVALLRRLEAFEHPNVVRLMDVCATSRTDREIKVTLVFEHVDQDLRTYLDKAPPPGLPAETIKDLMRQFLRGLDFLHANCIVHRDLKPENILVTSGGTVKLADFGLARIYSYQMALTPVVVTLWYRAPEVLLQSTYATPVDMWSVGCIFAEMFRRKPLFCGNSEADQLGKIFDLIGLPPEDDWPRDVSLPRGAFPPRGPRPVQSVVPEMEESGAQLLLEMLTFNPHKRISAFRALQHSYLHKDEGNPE
human CDK4 and genetically truncated (1-264) cyclin D3, sequence (P30281 1-264 partner): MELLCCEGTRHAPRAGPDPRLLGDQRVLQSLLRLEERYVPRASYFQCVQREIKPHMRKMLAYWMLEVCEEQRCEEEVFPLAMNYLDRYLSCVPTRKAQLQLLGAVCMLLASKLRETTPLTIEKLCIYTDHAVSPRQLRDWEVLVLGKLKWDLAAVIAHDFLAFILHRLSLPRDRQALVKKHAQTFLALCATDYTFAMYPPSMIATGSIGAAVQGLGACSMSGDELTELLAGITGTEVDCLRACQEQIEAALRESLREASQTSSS

As to `Nc1nc(NC2CCN(S(=O)(=O)c3ccc(N4CCC[C@H](CO)C4)nc3)CC2)sc1C(=O)c1c(F)cccc1F` [Example G18], the melting point was > 149 °C (dec.). Moreover, at CDK2/Cyclin A, the Ki was determined as 0.39 nM. Also, in data set [1], the Ki was 0.58 nM. Besides, the 50% inhibitory concentration (IC50) with HCT-116 cell line (first HCT-116 column (c4)) is 120 nM. For the same compound, the IC50 with HCT-116 cell line (second HCT-116 column (c5)) is 600 nM.

A word on the IC50: it is the midpoint of a concentration-inhibition curve. As usually defined, the melting point is the temperature, or range, at which the solid turns liquid.
